The term IC50 denotes the concentration needed to halve the response being measured.

The structures appear in SMILES notation. “And” between values parts separate entries of the source, which are not always exact repeats. Identical values can stand only once. Counter-ions that a name gives are not always drawn. Like-named read-outs stand apart in the source and are kept apart here. Where only a bound is given, the exact number is not on record here.

Here are results for 25 compounds from patent publication EP4585599A1, “NITROGEN-CONTAINING FUSED RING COMPOUND, INTERMEDIATE THEREOF, PREPARATION METHOD THEREFOR AND USE THEREOF” (Hangzhou Synrx Therapeutics Biomedical Technology Co., Ltd., priority 2022, dated 2024).

For assay [1], the target named is T1, helicase domain of the Pol θ protein (Homo sapiens, UniProt O75417).
T1 construct: The helicase domain of the Pol θ protein was purified from insect protein expression system; made in house; host or cells: insect protein expression system
T1 sequence (O75417 102-554 limits assumed): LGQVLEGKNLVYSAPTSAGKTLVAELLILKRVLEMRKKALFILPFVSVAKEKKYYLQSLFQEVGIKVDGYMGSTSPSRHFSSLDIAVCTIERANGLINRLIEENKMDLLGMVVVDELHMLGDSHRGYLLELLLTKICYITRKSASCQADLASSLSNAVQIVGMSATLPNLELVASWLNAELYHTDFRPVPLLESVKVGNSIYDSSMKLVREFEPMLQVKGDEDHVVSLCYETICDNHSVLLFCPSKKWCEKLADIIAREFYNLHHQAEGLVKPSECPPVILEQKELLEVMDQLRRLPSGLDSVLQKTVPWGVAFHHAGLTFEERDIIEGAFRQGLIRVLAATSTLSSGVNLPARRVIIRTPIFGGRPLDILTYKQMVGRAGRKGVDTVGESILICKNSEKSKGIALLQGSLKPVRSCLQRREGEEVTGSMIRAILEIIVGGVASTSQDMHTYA
Nature of the assay: Biochemical Activity Assay (ADP Glo Assay) of Pol θ inhibitor, ATPase activity. A general note: ADP-Glo turns the ADP formed in a reaction into a luminescent signal.

Assay [2] in a line: cells. The note with it: Homo sapiens, DLD-1, 240 h.
For assay [3] the following is noted: read-out: Cell viability assay IC50.
The mark [4] stands for this setting: read-out: Cell viability assay IC50 (nM).
Where [5] appears, read: ADP-Glo assay, ATPase activity of Pol θ helicase domain, ssDNA substrate, read-out: Biochemical assay IC50.
Where [6] appears, read: ADP-Glo, ssDNA substrate, 60 min at room temperature, read-out: Biochemical assay IC50.
Setting [7] is: CTG on Day 10, cell line not given (method: DLD1 and DLD1^-/- cells).
Where [8] appears, read: read-out: Cell viability assay IC50 (nM), CTG assay, CellTiter Glo, read on Day 10, cell line not given.

For `COc1cnc(Cl)cc1-c1cc(C)ncc1C(=O)Nc1nc2ncc([C@H]3CC[C@@H](O)CC3)cc2s1` [Example 26, 2'-chloro-N-(6-((1s, 4s)-4-hydroxycyclohexyl)thiazolo[4,5-b]pyridin-2-yl)-5'-methoxy-6-methyl-[4,4'-bipyridine]-3-carboxamide], the IC50 in assay [1] (Biochemical assay IC50 (nM)) was < 50 nM and 5.69 nM; in assay [2] (setting [4]), 100 to 500 nM; in assay [3], 158 nM.
For `COc1cnc(Cl)cc1-c1cc(C)ncc1C(=O)Nc1nc2ncc([C@H]3CC[C@H](O)CC3)cc2s1` [Example 27, 2'-chloro-N-(6-((1r, 4r)-4-hydroxycyclohexyl)thiazolo[4,5-b]pyridin-2-yl)-5'-methoxy-6-methyl-[4,4'-bipyridine]-3-carboxamide], the IC50 was < 50 nM and 10.3 nM in assay [1] (Biochemical assay IC50 (nM)); 500 to 1000 nM in assay [2] (setting [4]); 736 nM in assay [3].
Regarding `COc1cnc(Cl)cc1-c1cc(C)ncc1C(=O)Nc1nc2c(s1)CNCC2` [Example 41, 2'-chloro-5'-methoxy-6-methyl-N-(4,5,6,7-tetrahydrothiazol[5,4-c]pyridin-2-yl)-[4,4'-bipyridine]-3-carboxamide], the values for the IC50 in assay [1] (setting [5]), in assay [1] (setting [6]) and in assay [3] (setting [7]) were 1240 nM, greater than 500 nM and greater than 1000 nM, respectively.
Taken in the same sequence, the figures for `COc1cnc(Cl)cc1-c1cc(C)ncc1C(=O)Nc1nc2c(s1)CN(C1CCC(O)CC1)CC2` (stereo not drawn) [Example 42, 2'-chloro-N-(5-(4-hydroxycyclohexyl)-4,5,6,7-tetrahydrothiazol[5,4-c]pyridin-2-yl)-5'-m ethoxy-6-methyl-[4,4'-bipyridine]-3-carboxamide] were 200 nM, 200 to 500 nM and greater than 1000 nM.
As for `COc1cnc(C(F)F)cc1-c1cc(C)ncc1C(=O)Nc1nc2cnc(N3CCOCC3=O)nc2s1` [Example 204], the IC50 was 8.57 nM in assay [1] (setting [5]) and 541 nM in assay [2] (setting [8]).
On to `COc1cnc(Cl)cc1-c1cc(C)ncc1C(=O)Nc1nc2cnc(-c3ncco3)cc2s1` [Example 205, 2'-chloro-5'-methoxy-6-methyl-N-(6-(oxazol-2-yl)thiazolo[4,5-c]pyridin-2-yl)-[4,4'-bipyridine]-3-carboxamide], for which the IC50 in assay [1] (setting [5]) turned out to be 5.24 nM; in assay [2] (setting [8]) it was 20 nM.
`COc1cnc(Cl)cc1-c1cc(C)ncc1C(=O)Nc1nc2cnc(-c3nnc(C)o3)cc2s1` [Example 206]: the half-inhibitory concentration (IC50) in assay [1] (setting [5]) was found to be 2.36 nM; in assay [2] (setting [8]), 13.6 nM.
Taken in the same sequence, the figures for `COc1cnc(Cl)cc1-c1cc(C)ncc1C(=O)Nc1nc2cnc(-c3nnnn3C)cc2s1` [Example 208] were 36.3 nM and 141 nM.
Taken in the same sequence, the figures for `COc1cnc(Cl)cc1-c1cc(C)ncc1C(=O)Nc1nc2cnc(-c3nnn(C)n3)cc2s1` [Example 209] were 1.93 nM and 6.82 nM.
As to `COc1cnc(Cl)c(F)c1-c1cc(C)ncc1C(=O)Nc1nc2cnc(-c3c(C)cnn3C)cc2s1` [Example 210], the IC50 in assay [1] (setting [5]) was 2.43 nM; in assay [2] (setting [8]), less than 1.52 nM.
As to `COc1cnc(Cl)c(F)c1-c1cc(C)ncc1C(=O)Nc1nc2cnc(-c3c(C)noc3C)cc2s1` [Example 211], the half-inhibitory concentration (IC50) in assay [1] (setting [5]) was 2.51 nM; in assay [2] (setting [8]), 3.28 nM.
Taken in the same sequence, the figures for `COc1cnc(Cl)cc1-c1cc(C)ncc1C(=O)Nc1nc2cnc(-c3c(C)cnn3C(C)C)cc2s1` [Example 212] were 3.48 nM and 2.23 nM.
Taken in the same sequence, the figures for `COc1cnc(C(F)F)cc1-c1cc(C)ncc1C(=O)Nc1nc2cnc(-c3c(C)nnn3C3CC3)cc2s1` [Example 213, N-(6-(1-cyclopropyl-4-methyl-1H-1,2,3-triazol-5-yl)thiazolo[4,5-c]pyridin-2-yl)-2'-(difluoromethyl)-5'-methoxy-6-methyl-[4,4'-bipyridine]-3-carboxamide] were 3.63 nM and 4.13 nM.
`COc1cnc(Cl)cc1-c1cc(C)ncc1C(=O)Nc1nc2cnc(-c3c(C)nnn3C3CC3)cc2s1` [Example 214]: the IC50 in assay [1] (read-out: Biochemical assay IC50) was 6.71 nM; in assay [2] (setting [4]), 27 nM.
As for `COc1cnc(C(F)F)cc1-c1cc(C)ncc1C(=O)Nc1nc2cnc(-c3c(C)nnn3C)c(F)c2s1` [Example 215, 2'-(difluoromethyl)-N-(6-(1,4-dimethyl-1H-1,2,3-triazol-5-yl)-7-fluorothiazolo[4,5-c]pyridin-2-yl)-5'-methoxy-6-methyl-[4,4'-bipyridine]-3-carboxamide], the values for the IC50 in assay [1] (setting [5]) and in assay [2] (setting [8]) were 3.11 nM and 2.92 nM, respectively.
As to `COc1cnc(C(F)F)cc1-c1cc(C)ncc1C(=O)Nc1nc2cnc(-c3nncn3C)cc2s1` [Example 218], the IC50 was 31.1 nM in assay [1] (Biochemical assay IC50 (nM)) and 656 nM in assay [2] (setting [4]).
Take `COc1cnc(Cl)cc1-c1cc(C)ncc1C(=O)Nc1nc2cnc(-c3c(C)cnn3CCN(C)C)cc2s1` [Example 219, 2'-chloro-N-(6-(1-(2-(dimethylamino)ethyl)-4-methyl-1H-parazol-5-yl)thiazolo[4,5-c]pyridin-2-yl)-5'-methoxy-6-methyl-[4.4'-bipyridine]-3-carboxamide trifluoroacetate]: the IC50 turned out to be 3.31 nM in assay [1] (Biochemical assay IC50 (nM)) and 63.1 nM in assay [2] (setting [4]).
As to `COc1cnc(Cl)cc1-c1cc(C)ncc1C(=O)Nc1nc2cnc(-c3c(C)cnn3CCO)cc2s1` [Example 220], the IC50 in assay [1] (setting [5]) was 2.51 nM; in assay [2] (setting [8]), 22.2 nM.
Taken in the same sequence, the figures for `COc1cnc(Cl)cc1-c1cc(C)ncc1C(=O)Nc1nc2cnc(-c3nn(CCO)cc3C)cc2s1` [Example 221] were 4.78 nM and 1850 nM.
For `COc1cnc(Cl)cc1-c1cc(C)ncc1C(=O)Nc1nc2ccc(-c3c(C)nnn3C)cc2s1` [Example 222, 2'-chloro-N-(6-(1,4-dimethyl-1H-1,2,3-triazol-5-yl)benzo[d]lthiazol-2-yl)-5'-methoxy-6-methyl-[4.4'-bipyridine]-3-carboxamide], the figures for the 50% inhibitory concentration (IC50) in assay [1] (Biochemical assay IC50 (nM)) and in assay [2] (setting [4]) were 4.36 nM and 9.62 nM, respectively.
As for `COc1cnc(C(F)F)cc1-c1cc(C)ncc1C(=O)Nc1nc2ccc(-c3c(C)nnn3C)cc2s1` [Example 223], the IC50 in assay [1] (setting [5]) worked out at 2.51 nM; in assay [2] (setting [8]), 10 nM.
Taken in the same sequence, the figures for `COc1cnc(Cl)c(F)c1-c1cc(C)ncc1C(=O)Nc1nc2ccc(-c3c(C)nnn3C)cc2s1` [Example 224] were 3.98 nM and 3.16 nM.
Take `COc1cnc(Cl)cc1-c1cc(C)ncc1C(=O)Nc1nc2cc3c(cc2s1)C(=O)N(C)CCC3` [Example 225, 2'-chloro-5'-methoxy-6-methyl-N-(6-methyl-5-oxo-6,7,8,9-tetrahydro-5H-thiazolo[4',5': 4,5]benzo[1,2-c]aza-2-yl)-[4,4'-bipyridine]-3-carboxamide]: the IC50 in assay [1] (Biochemical assay IC50 (nM)) was 21.1 nM; in assay [2] (setting [4]), 56.2 nM.
Taken in the same sequence, the figures for `COc1cnc(Cl)cc1-c1cc(C)ncc1C(=O)Nc1nc2cnc(-c3c(C(F)F)nnn3C)cc2s1` [Example 226, 2'-chloro-N-(6-(4-(difluoromethyl)-1-methyl-1H-1,2,3-triazol-5-yl)thiazolo[4,5-c]pyridin-2-yl)-5'-methoxv-6-methyl-[4.4'-bipyridine]-3-carboxamide] were 4.02 nM and 8.46 nM.
As to `COc1cnc(Cl)cc1-c1cc(C)ncc1C(=O)Nc1nc2cc(F)c(-c3c(C)nnn3C)nc2s1` [Example 227, 2'-chloro-N-(5-(1,4-dimethyl-1H-1,2,3-triazol-5-yl)-6-fluorothiazolo[5,4-b]pyridin-2-yl) -5'-methoxy-6-methyl-[4,4'-bipyridine]-3-carboxamide], the values for the IC50 in assay [1] (setting [5]) and in assay [2] (setting [8]) were 20.7 nM and 112 nM, respectively.
